Reference: patent publication US20230416692A1 (BOARD OF REGENTS, THE UNIVERSITY OF TEXAS SYSTEM, priority 2020, published 2023)
Read-outs that look alike come from different tables or passages of the source.

Key:
SARS-CoV-2-Nluc = assay: microbe, parasite or virus in culture; type: cell-based
plasma protein = settings: data from literature; cited from earlier work
[1] = human exposures in the clinics, cited from earlier work; for Cmax: read-out: Exposure (μM): Cmax
[2] = Severe acute respiratory syndrome coronavirus 2, 48 h
[3] = Severe acute respiratory syndrome coronavirus 2

Nc1ccn([C@@H]2O[C@@](CO)(CCl)[C@@H](O)[C@H]2F)c(=O)n1 [ALS-8112]
EC50 (SARS-CoV-2-Nluc; [2]): > 10 µM
CC50 (A549-hACE2 cells; human): > 50 µM

CC(C)CN(C[C@@H](O)[C@H](Cc1ccccc1)NC(=O)O[C@H]1CCOC1)S(=O)(=O)c1ccc(N)cc1 [Amprenavir]
activity against SARS-CoV-2-Nluc (in words) (SARS-CoV-2-Nluc): inactive
EC50 (SARS-CoV-2-Nluc; [2]): > 10 µM
CC50 (A549-hACE2 cells; human): > 50 µM
Plasma protein binding (%) (plasma protein): 90%

COC(=O)N[C@H](C(=O)N[C@@H](Cc1ccccc1)[C@@H](O)CN(Cc1ccc(-c2ccccn2)cc1)NC(=O)[C@@H](NC(=O)OC)C(C)(C)C)C(C)(C)C [Atazanavir]
activity against SARS-CoV-2-Nluc (in words) (SARS-CoV-2-Nluc): inactive
EC50 (SARS-CoV-2-Nluc; [2]): > 10 µM
CC50 (A549-hACE2 cells; human): > 50 µM
Plasma protein binding (%) (plasma protein): 86%

O=C1c2c(O)c(=O)ccn2N([C@@H]2c3ccccc3SCc3c2ccc(F)c3F)[C@@H]2COCCN12 [Baloxavir]
EC50 (SARS-CoV-2-Nluc; [2]): > 10 µM
CC50 (A549-hACE2 cells; human): 47 ± 1.3 µM

O=C(NCc1c(F)cc(F)cc1F)c1cn2c(c(O)c1=O)C(=O)N1[C@H]3CC[C@H](C3)O[C@@H]1C2 [Bictegravir]
EC50 (SARS-CoV-2-Nluc; [2]): > 10 µM
CC50 (A549-hACE2 cells; human): > 50 µM
Plasma protein binding (%) (plasma protein): >99%

Nc1ccn(C[C@@H](CO)OCP(=O)(O)O)c(=O)n1 [Cidofovir]
EC50 (SARS-CoV-2-Nluc; [2]): > 10 µM
CC50 (A549-hACE2 cells; human): > 50 µM

CC(C)c1nc(CN(C)C(=O)N[C@@H](CCN2CCOCC2)C(=O)N[C@H](CC[C@H](Cc2ccccc2)NC(=O)OCc2cncs2)Cc2ccccc2)cs1 [Cobicistat]
SI (selectivity index) (SARS-CoV-2-Nluc): 17.3
EC50 (SARS-CoV-2-Nluc; [3]): 0.77 to 2.74 µM
CC50 (A549-hACE2 cells; human): 47.3 ± 2.5 µM

CC(C)CN(C[C@@H](O)[C@H](Cc1ccccc1)NC(=O)O[C@H]1CO[C@H]2OCC[C@H]21)S(=O)(=O)c1ccc(N)cc1 [Darunavir]
activity against SARS-CoV-2-Nluc (in words) (SARS-CoV-2-Nluc): inactive
EC50 (SARS-CoV-2-Nluc; [2]): > 10 µM
CC50 (A549-hACE2 cells; human): > 50 µM

O=C1Nc2ccc(Cl)cc2[C@@](C#CC2CC2)(C(F)(F)F)O1 [Efavirenz]
SI (selectivity index) (SARS-CoV-2-Nluc): <3.9
EC50 (SARS-CoV-2-Nluc; [2]): > 9.6 µM
CC50 (A549-hACE2 cells; human): 37.6 ± 10.7 µM
Exposure (μM): Cmin [1]: 5.6 µM
Cmax [1]: 12.9 µM
Plasma protein binding (%) (plasma protein): 99.5-99.8%

Nc1nc(=O)n([C@@H]2CS[C@H](CO)O2)cc1F [Emtricitabine]
activity against SARS-CoV-2-Nluc (in words) (SARS-CoV-2-Nluc): inactive
EC50 (SARS-CoV-2-Nluc; [2]): > 10 µM
CC50 (A549-hACE2 cells; human): > 50 µM
Cmax [1]: 7.9 µM
Plasma protein binding (%) (plasma protein): 4%

C=C1[C@H](CO)[C@@H](O)C[C@@H]1n1cnc2c(=O)[nH]c(N)nc21 [Entecavir]
EC50 (SARS-CoV-2-Nluc; [2]): > 10 µM
CC50 (A549-hACE2 cells; human): > 50 µM

NC(=O)c1nc(F)c[nH]c1=O [Favipiravir]
EC50 (SARS-CoV-2-Nluc; [2]): > 10 µM
CC50 (A549-hACE2 cells; human): > 50 µM

CC(C)OC(=O)[C@H](C)N[P@+]([O-])(OC[C@H]1O[C@@](C#N)(c2ccc3c(N)ncnn23)[C@](C)(O)[C@@H]1OC(=O)C(C)C)Oc1ccccc1 [GS-6620]
EC50 (SARS-CoV-2-Nluc; read-out: EC50): > 10 µM
CC50 (A549-hACE2 cells): > 50 µM

COc1ccc2c(O[C@@H]3C[C@H]4C(=O)N[C@]5(P(=O)(O)Cc6c(F)cccc6F)C[C@H]5CCCCCCC[C@H](NC(=O)OC5CCCC5)C(=O)N4C3)cc(-c3csc(NC(C)C)n3)nc2c1Cl [GS-9256]
EC50 (SARS-CoV-2-Nluc; read-out: EC50): > 10 µM
CC50 (A549-hACE2 cells): 31.8 ± 10.9 µM

CC[C@@H]1C[C@]1(NC(=O)[C@@H]1C[C@@H](Oc2cc(-c3csc(NC(C)C)n3)nc3c(Cl)c(OCCN4CCOCC4)ccc23)CN1C(=O)[C@@H](NC(=O)O[C@@H]1C[C@@H]2C[C@@H]2C1)C(C)(C)C)C(=O)O [GS-9451]
EC50 (SARS-CoV-2-Nluc; read-out: EC50): > 10 µM
CC50 (A549-hACE2 cells): > 50 µM

C=CC(=O)N1CCC[C@@H](n2nc(-c3ccc(Oc4ccccc4)cc3)c3c(N)ncnc32)C1 [Ibrutinib]
EC50 (SARS-CoV-2-Nluc; [2]): > 10 µM
CC50 (A549-hACE2 cells; human): > 50 µM

CC(C)(C)NC(=O)[C@@H]1CN(Cc2cccnc2)CCN1C[C@@H](O)C[C@@H](Cc1ccccc1)C(=O)N[C@H]1c2ccccc2C[C@H]1O [Indinavir]
activity against SARS-CoV-2-Nluc (in words) (SARS-CoV-2-Nluc): inactive
EC50 (SARS-CoV-2-Nluc; [2]): > 10 µM
CC50 (A549-hACE2 cells; human): > 50 µM

COC(=O)N[C@H](C(=O)N1CC2(CC2)C[C@H]1c1ncc(-c2ccc3c(c2)C(F)(F)c2cc(-c4ccc5nc([C@@H]6[C@H]7CC[C@H](C7)N6C(=O)[C@@H](NC(=O)OC)C(C)C)[nH]c5c4)ccc2-3)[nH]1)C(C)C [Ledapisvir]
activity against SARS-CoV-2-Nluc (in words) (SARS-CoV-2-Nluc): inactive
EC50 (SARS-CoV-2-Nluc; [2]): > 10 µM
CC50 (A549-hACE2 cells; human): > 50 µM

Cc1cccc(C)c1OCC(=O)N[C@@H](Cc1ccccc1)[C@@H](O)C[C@H](Cc1ccccc1)NC(=O)[C@H](C(C)C)N1CCCNC1=O [Lopinavir]
EC50 (SARS-CoV-2-Nluc): 9 ± 0.42 µM
EC50 (SARS-CoV-2-Nluc; [2]): 8 to 9 µM
CC50 (A549-hACE2 cells; human): 31.5 ± 2.5 µM
Plasma protein binding (%) (plasma protein): 98-99%

C[C@@]1(O)[C@H](O)[C@@H](CO)O[C@H]1n1ccc2c(N)ncnc21 [MK-0608]
EC50 (SARS-CoV-2-Nluc; read-out: EC50): > 10 µM
CC50 (A549-hACE2 cells): > 50 µM

O=C(Nc1ccc([N+](=O)[O-])cc1Cl)c1cc(Cl)ccc1O [Niclosamide]
SI (selectivity index) (SARS-CoV-2-Nluc): 1.8
EC50 (SARS-CoV-2-Nluc; [2]): 0.715 µM
CC50 (A549-hACE2 cells; human): 1.28 ± 0.23 µM

CC(C)[C@@]1(C(=O)N[C@H]2CC(=O)O[C@]2(O)CF)CC(c2nccc3ccccc23)=NO1 [Nivocasan]
activity against SARS-CoV-2-Nluc (in words) (SARS-CoV-2-Nluc): inactive
EC50 (SARS-CoV-2-Nluc; read-out: EC50): > 10 µM
CC50 (A549-hACE2 cells): > 50 µM

CCC(CC)O[C@@H]1C=C(C(=O)O)C[C@H](N)[C@H]1NC(C)=O [Oseltamivir carboxylate]
EC50 (SARS-CoV-2-Nluc; [2]): > 10 µM
CC50 (A549-hACE2 cells; human): > 50 µM

CCOc1nc(N)nc2c1ncn2[C@@H]1O[C@@H]2COP(=O)(OC(C)C)O[C@H]2[C@@]1(C)F (stereo partly shown) [PSI-352938]
EC50 (SARS-CoV-2-Nluc; [2]): > 10 µM
CC50 (A549-hACE2 cells; human): > 50 µM

Cc1cn2nc([C@@H]3CCCCN3C(=O)c3cc(Cl)ccc3NS(C)(=O)=O)cc2nc1N1CC[C@H](N)C1 [Presatovir]
EC50 (SARS-CoV-2-Nluc; [2]): 2.53 µM

CC1=CC[C@H](C(=O)N(c2cc(C#CC(C)(C)C)sc2C(=O)O)[C@H]2CC[C@](O)(CO[C@H]3CCOC3)CC2)CC1 [Radalbuvir]
EC50 (SARS-CoV-2-Nluc; [2]): > 10 µM
CC50 (A549-hACE2 cells; human): > 50 µM

NC(=O)c1ncn([C@@H]2O[C@H](CO)[C@@H](O)[C@H]2O)n1 [Ribavirin]
EC50 (SARS-CoV-2-Nluc; [2]): > 10 µM
CC50 (A549-hACE2 cells; human): > 50 µM

CC(C)c1nc(CN(C)C(=O)N[C@H](C(=O)N[C@@H](Cc2ccccc2)C[C@H](O)[C@H](Cc2ccccc2)NC(=O)OCc2cncs2)C(C)C)cs1 [Ritonavir]
activity against SARS-CoV-2-Nluc (in words) (SARS-CoV-2-Nluc): inactive
EC50 (SARS-CoV-2-Nluc; [2]): > 10 µM

Nc1ncnc2c1ncn2[C@@H]1O[C@H](OCP(=O)(O)O)C=C1F [Rovafovir]
EC50 (SARS-CoV-2-Nluc; read-out: EC50): > 10 µM
CC50 (A549-hACE2 cells): > 50 µM
Plasma protein binding (%) (plasma protein): 58%

CCOC(=O)/C=C/[C@H](C[C@@H]1CCNC1=O)NC(=O)[C@@H](CC(=O)[C@@H](NC(=O)c1cc(C)on1)C(C)C)Cc1ccc(F)cc1 [Rupintrivir]
EC50 (SARS-CoV-2-Nluc): 1.87 ± 0.47 µM
SI (selectivity index) (SARS-CoV-2-Nluc): >26.7
EC50 (SARS-CoV-2-Nluc; [3]): 0.77 to 2.74 µM
CC50 (A549-hACE2 cells; human): > 50 µM

CC(C)OC(=O)[C@H](C)N[P@](=O)(OC[C@H]1O[C@@H](n2ccc(=O)[nH]c2=O)[C@](C)(F)[C@@H]1O)Oc1ccccc1 [Sofosbuvir]
activity against SARS-CoV-2-Nluc (in words) (SARS-CoV-2-Nluc): inactive
EC50 (SARS-CoV-2-Nluc; [2]): > 10 µM
CC50 (A549-hACE2 cells; human): > 50 µM

Fc1ccccc1-c1nc2ccn(Cc3ccc(-c4ccc(C(F)(F)F)cc4C(F)(F)F)nn3)cc-2n1 [Tegobuvir]
EC50 (SARS-CoV-2-Nluc; [2]): > 10 µM
CC50 (A549-hACE2 cells; human): 17.9 ± 3.1 µM

CC#CC(=O)N1CC[C@@H](n2c(=O)n(-c3ccc(Oc4ccccc4)cc3)c3c(N)ncnc32)C1 [Tirabrutinib]
EC50 (SARS-CoV-2-Nluc; [2]): > 10 µM
CC50 (A549-hACE2 cells; human): > 50 µM

COC[C@H]1C[C@@H](c2ncc(-c3ccc4c(c3)COc3cc5c(ccc6nc([C@@H]7CC[C@H](C)N7C(=O)[C@@H](NC(=O)OC)C(C)C)[nH]c65)cc3-4)[nH]2)N(C(=O)[C@H](NC(=O)OC)c2ccccc2)C1 [Velpatasvir]
activity against SARS-CoV-2-Nluc (in words) (SARS-CoV-2-Nluc): inactive
EC50 (SARS-CoV-2-Nluc; [2]): > 10 µM
CC50 (A549-hACE2 cells; human): > 50 µM

Voxilaprevir
EC50 (SARS-CoV-2-Nluc; read-out: EC50): > 10 µM
CC50 (A549-hACE2 cells): 16 ± 1.2 µM
